# Test results taken from patent publication US5972890A, “Synthetic peptides for arterial imaging” (New England Deaconess Hospital Corporation, priority 1995, dated 1999).
# Ends that are not written are not given here.
# How the values were obtained:
# [1] = Plasma decay of 125I-labelled synthetic peptide after ear vein injection; assay type: in vivo, rabbit; details: for additional fall of plasma level over the next three hours: from one hour to four hours after injection
# Method: Each labelled synthetic peptide preparation (containing, for example, 150 to 400 or more μCi of ^125 I-labelled peptide) in column elution buffer was injected into the marginal ear vein of the ballooned and healing New Zealand white rabbits or WHHL rabbits. Serial blood samples were obtained from the opposite ear during the ensuing 0-24 hours and were analyzed for radioactivity. The labelled peptide concentrations in the blood samples that were withdrawn over the first 10 minutes after injection were extrapolated to zero time to determine the time zero radioactivity in the calculation of average plasma radioactivity. […] Peptides SP15a, SP17, SP19a, SP21a, SP28, SP34a, and SP30 were cleared rapidly from the plasma with half-lives of about one minute or less; after one hour, the plasma levels were less than 10% of the injected dose and fell by an additional 1% over the next three hours. Peptides SP15a, SP17, SP21a, SP28, SP34a, and SP30 leveled off to a plasma level of 3-6%; peptide SP19a cleared more quickly and leveled off to a concentration of 0.3% (at four hours).
# [2] = system: anti-SP-4 antiserum; assay: ELISA immunological cross-reactivity with anti-SP-4 antiserum; assay type: binding; details: ELISA plates coated with peptide or LDL, rabbit polyclonal anti-SP-4 antiserum
# Method: To produce anti-synthetic peptide antisera, purified synthetic peptide was dissolved in PBS, pH 7.4 at a concentration of 1 mg/ml. The peptide solution was mixed with an equal volume of complete Freund's adjuvant and vortexed thoroughly until a thick emulsion was produced. New Zealand White rabbits (Millbrook Farms, Amherst, Mass.) were injected with a total of 0.5 mg synthetic peptide administered subcutaneously in the four dorsal quadrants. The rabbits were given a boost (injected at the same sites) with 0.5 mg peptide emulsified in incomplete Freund's adjuvant 2-3 weeks later. Eight to ten days after the first boost, the animals were given a second, identical boost and were bled of 30 ml 8 to 10 days later.
# To test for immunological cross-reactivity microtiter plates (Immulon II Dynatech Labs, Chantilly, Va.) were coated with the purified synthetic peptide or LDL by an overnight incubation at 4° C. with 100 ng peptide per well in 50 mM carbonate, pH 9.6, and blocked for nonspecific binding with an additional overnight incubation with phosphate-buffered saline, pH 7.4 (PBS), 1% bovine serum albumin (BSA). Control wells were coated with BSA alone. After washing twice with PBS, the wells were filled with serial dilutions (1:10 to 1:100,000 made in PBS, 3% BSA) of a rabbit polyclonal antibody generated against the synthetic peptide(s) and incubated for 45 minutes at room temperature. Following thorough washing (3× with PBS, 0.1% BSA), the wells were filled with a 1:2000 dilution of goat anti-rabbit IgG-horseradish peroxidase conjugate (Atlantic Antibodies, Scarborough, Me.). After a final wash, the wells were filled with 3,3'-5,5'-tetramethybenzidine (TMB) microwell peroxidase substrate (Kirkegaard and Perry Labs, Gaithersburg, Md.) and read at 650 nm every two minutes on an ELISA-5 automated plate reader (Physica, New York, N.Y.). Results (see, e.g., FIGS. 4 and 5) are expressed as the initial velocity of substrate conversion (change in OD650 /hr), which is determined by a linear regression of 15 data points per well. Each data point represents the average of three measured data points from the same plate, run at the same time.
Substance,additional fall of plasma level over the next three hours [1],binding of anti-SP-4 antiserum to coated peptide or LDL [2],plasma concentration at which peptide leveled off ([1]; at four hours)
Ac-YVLDEFREKLNEELEALKQK-NH2 [SP-34a],1%,,
"YVPGVGVPGVGVPGVGVPGVG-NH2 [SP-30, H2 N-Tyr-Val-Pro-Gly-Val-Gly-Val-Pro-Gly-Val-Gly-Val-Pro-Gly-Val-Gly-Val-Pro- Gly-Val-Gly-CONH2]",1%,,
"Ac-YRALVDTEFKVKQEAGAK-NH2 [SP-21a, CH3 CONH-Tyr-Arg-Ala-Leu-Val-Asp-Thr-Glu-Phe-Lys-Val-Lys-Gln-Glu-Ala-Gly-Ala-Lys-CONH2]",1%,,
"Ac-YRALVDTLKFVTQAEGAK-NH2 [SP-4A, CH3 CONH-Tyr-Arg-Ala-Leu-Val-Asp-Thr-Leu-Lys-Phe-Val-Thr-Gln-Ala-Glu-Gly-Ala-Lys-CONH2]",,bind,
"Ac-YRALVDYLKFVTQL-NH2 [SP-12A, CH3 CONH-Tyr-Arg-Ala-Leu-Val-Asp-Tyr-Leu-Lys-Phe-Val-Thr-Gln-Leu-CONH2]",,bind,
"YKLALEAARLLANAEGAK-NH2 [SP-8, H2 N-Tyr-Lys-Leu-Ala-Leu-Glu-Ala-Ala-Arg-Leu-Leu-Ala-Asn-Ala-Glu-Gly-Ala-Lys- CONH2]",,bind,
"Ac-YRALVDTLKFVTEQAKGA-NH2 [SP-19a, CH3 CONH-Tyr-Arg-Ala-Leu-Val-Asp-Thr-Leu-Lys-Phe-Val-Thr-Glu-Gln-Ala-Lys-Gly-Ala-CONH2]",1%,,0.3%
"YKLALEAARLLADAEGAK-NH2 [SP-6, H2 N-Tyr-Lys-Leu-Ala-Leu-Glu-Ala-Ala-Arg-Leu-Leu-Ala-Asp-Ala-Glu-Gly-Ala-Lys- CONH2]",,bind,
"Ac-YKLALEAARLLANAEGAK-NH2 [SP-8A, CH3 CONH-Tyr-Lys-Leu-Ala-Leu-Glu-Ala-Ala-Arg-Leu-Leu-Ala-Asn-Ala-Glu-Gly-Ala-Lys-CONH2]",,bind,
"YRALVDTLKFVTQAEGAK-NH2 [SP-4, NH2 -Tyr-Arg-Ala-Leu-Val-Asp-Thr-Leu-Lys-Phe-Val-Thr-Gln-Ala-Glu-Gly-Ala-Lys-CONH2]",,bind,
"Ac-YRALVDTLK-NH2 [SP-14A, CH3 CONH-Tyr-Arg-Ala-Leu-Val-Asp-Thr-Leu-Lys-CONH2]",,bind,
"YVGVAPGVGVAPGVGVAPG [SP-28, H2 N-Tyr-Val-Gly-Val-Ala-Pro-Gly-Val-Gly-Val-Ala-Pro-Gly-Val-Gly-Val-Ala-Pro- Gly-OH]",1%,,
"Ac-YKLALEAARLLADAEGAK-NH2 [SP-6A, CH3 CONH-Tyr-Lys-Leu-Ala-Leu-Glu-Ala-Ala-Arg-Leu-Leu-Ala-Asp-Ala-Glu-Gly-Ala-Lys-CONH2]",,bind,
"Ac-YAKFRETLEDTRDRMY-NH2 [SP-15a, CH3 CONH-Tyr-Ala-Lys-Phe-Arg-Glu-Thr-Leu-Glu-Asp-Thr-Arg-Asp-Arg-Met-Tyr-CONH2]",1%,,
"YAALDLNAVANKIADFEL-NH2 [SP-17, H2 N-Tyr-Ala-Ala-Leu-Asp-Leu-Asn-Ala-Val-Ala-Asn-Lys-Ile-Ala-Asp-Phe-Glu-Leu- CONH2]",1%,,
